Reference: PubChem BioAssay (NCI)
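Compound exposure: 48 hours, 5 concentrations, 96-well plates. GI50 = concentration required for 50% inhibition of growth. The concentration for full growth arrest is given as TGI.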

Columns and labels:
Test in all cases: NCI-60 cell line screen, 48 h; in the data active = GI50 below about 0.43 µM; inactive = the rest
[1] = tested on: 786-0 renal
[2] = tested on: A498 renal
[3] = tested on: ACHN renal
[4] = tested on: BT-549 breast
[5] = tested on: CAKI-1 renal
[6] = tested on: CCRF-CEM leukemia
[7] = tested on: COLO 205 colon
[8] = tested on: DU-145 prostate
[9] = tested on: EKVX NSCLC
[10] = tested on: HCC-2998 colon
[11] = tested on: HCT-116 colon
[12] = tested on: HCT-15 colon
[13] = tested on: HL-60(TB) leukemia
[14] = tested on: HOP-62 NSCLC
[15] = tested on: HOP-92 NSCLC
[16] = tested on: HS 578T breast
[17] = tested on: HT29 colon
[18] = tested on: IGROV1 ovarian
[19] = tested on: K-562 leukemia
[20] = tested on: LOX IMVI melanoma
[21] = tested on: M14 melanoma
[22] = tested on: MALME-3M melanoma
[23] = tested on: MDA-MB-231 breast
[24] = tested on: MDA-MB-435
[25] = tested on: MOLT-4 leukemia
[26] = tested on: NCI-H226 lung
[27] = tested on: NCI-H23 lung
[28] = tested on: NCI/ADR-RES ovarian
[29] = tested on: OVCAR-3 ovarian
[30] = tested on: OVCAR-5 ovarian
[31] = tested on: OVCAR-8 ovarian
[32] = tested on: PC-3 prostate
[33] = tested on: RPMI-8226 leukemia
[34] = tested on: RXF 393 renal
[35] = tested on: SF-268 CNS
[36] = tested on: SF-295 CNS
[37] = tested on: SF-539 CNS
[38] = tested on: SK-MEL-2 melanoma
[39] = tested on: SK-MEL-28 melanoma
[40] = tested on: SK-MEL-5 melanoma
[41] = tested on: SK-OV-3 ovarian
[42] = tested on: SN12C renal
[43] = tested on: SNB-19 CNS
[44] = tested on: SNB-75 CNS
[45] = tested on: SR leukemia
[46] = tested on: SW-620 colon
[47] = tested on: T-47D breast
[48] = tested on: TK-10 renal
[49] = tested on: U251 CNS
[50] = tested on: UACC-257 melanoma
[51] = tested on: UACC-62 melanoma
[52] = tested on: UO-31 renal
[53] = tested on: A549 NSCLC
[54] = tested on: MCF7 breast
[55] = tested on: NCI-H460 lung
[56] = tested on: OVCAR-4 ovarian

Nc1nc(-c2cccc([N+](=O)[O-])c2)c(N=Nc2cccc([N+](=O)[O-])c2)s1
> 92.8 µM: TGI [13]
> 57.3 µM: TGI [45]
> 100 µM: TGI [1] | TGI [2] | TGI [3] | TGI [4] | TGI [5] | TGI [6] | TGI [7] | TGI [8] | TGI [9] | TGI [10] | TGI [11] | TGI [12] | TGI [14] | TGI [15] | TGI [16] | TGI [17] | TGI [18] | TGI [20] | TGI [21] | TGI [22] | TGI [23] | TGI [24] | TGI [25] | TGI [26] | TGI [27] | TGI [28] | TGI [29] | TGI [30] | TGI [31] | TGI [32] | TGI [33] | TGI [34] | TGI [35] | TGI [36] | TGI [37] | TGI [38] | TGI [39] | TGI [40] | TGI [41] | TGI [42] | TGI [43] | TGI [44] | TGI [46] | TGI [47] | TGI [48] | TGI [49] | TGI [50] | TGI [51] | TGI [52]
> 65 µM: TGI [19]
inactive: GI50 [1] 63 µM | GI50 [2] 33.1 µM | GI50 [3] > 100 µM | GI50 [4] 10.4 µM | GI50 [5] > 100 µM | GI50 [6] 39.7 µM | GI50 [7] > 100 µM | GI50 [8] > 100 µM | GI50 [9] > 78.5 µM | GI50 [10] > 100 µM | GI50 [11] > 100 µM | GI50 [12] > 100 µM | GI50 [13] > 52.6 µM | GI50 [14] 64.9 µM | GI50 [15] 3.79 µM | GI50 [16] > 100 µM | GI50 [17] > 100 µM | GI50 [18] > 100 µM | GI50 [19] 1.39 µM | GI50 [20] > 100 µM | GI50 [21] > 100 µM | GI50 [22] > 100 µM | GI50 [23] 13.6 µM | GI50 [24] > 100 µM | GI50 [25] > 25.3 µM | GI50 [26] > 100 µM | GI50 [27] > 100 µM | GI50 [28] > 100 µM | GI50 [29] > 100 µM | GI50 [30] > 100 µM | GI50 [31] > 100 µM | GI50 [32] > 27.2 µM | GI50 [33] > 100 µM | GI50 [34] > 100 µM | GI50 [35] > 100 µM | GI50 [36] > 100 µM | GI50 [37] > 100 µM | GI50 [38] > 92.8 µM | GI50 [39] > 100 µM | GI50 [40] 56.9 µM | GI50 [41] > 100 µM | GI50 [42] > 100 µM | GI50 [43] 57.9 µM | GI50 [44] 53 µM | GI50 [45] 19.2 µM | GI50 [46] > 100 µM | GI50 [47] > 100 µM | GI50 [48] 46.5 µM | GI50 [49] 4.29 µM | GI50 [50] > 100 µM | GI50 [51] > 100 µM | GI50 [52] > 100 µM

COc1ccc2[nH]cc(-c3csc4nc(-c5ccccc5)cn34)c2c1
0.779 µM: TGI [44]
> 88.4 µM: TGI [53]
4.77 µM: TGI [34]
active: GI50 [5] 0.404 µM | GI50 [6] 0.248 µM | GI50 [7] 0.334 µM | GI50 [12] 0.242 µM | GI50 [13] 0.287 µM | GI50 [15] 0.424 µM | GI50 [16] 0.328 µM | GI50 [17] 0.324 µM | GI50 [19] 0.139 µM | GI50 [21] 0.295 µM | GI50 [54] 0.276 µM | GI50 [55] 0.374 µM | GI50 [28] 0.252 µM | GI50 [29] 0.355 µM | GI50 [32] 0.412 µM | GI50 [33] 0.416 µM | GI50 [36] 0.395 µM | GI50 [37] 0.359 µM | GI50 [38] 0.291 µM | GI50 [40] 0.407 µM | GI50 [44] 0.24 µM | GI50 [45] 0.066 µM | GI50 [46] 0.36 µM | GI50 [47] 0.382 µM | GI50 [49] 0.401 µM | GI50 [51] 0.327 µM
42.6 µM: TGI [48]
inactive: GI50 [1] 0.599 µM | GI50 [2] 3.73 µM | GI50 [53] 0.891 µM | GI50 [3] 0.612 µM | GI50 [4] 0.508 µM | GI50 [8] 0.576 µM | GI50 [9] 0.804 µM | GI50 [10] 0.602 µM | GI50 [14] 0.579 µM | GI50 [18] 0.477 µM | GI50 [22] 0.492 µM | GI50 [23] 0.524 µM | GI50 [25] 0.44 µM | GI50 [26] 0.947 µM | GI50 [56] 2.22 µM | GI50 [30] 0.709 µM | GI50 [34] 0.553 µM | GI50 [35] 0.823 µM | GI50 [39] 0.724 µM | GI50 [41] 0.489 µM | GI50 [42] 0.47 µM | GI50 [43] 0.616 µM | GI50 [48] 6.97 µM | GI50 [50] 0.525 µM | GI50 [52] 0.465 µM
> 51.9 µM: TGI [25]
32 µM: TGI [52]
3.75 µM: TGI [10]
19.1 µM: TGI [14]
4.8 µM: TGI [4]
5.76 µM: TGI [26]
3.86 µM: TGI [33]
3.64 µM: TGI [40]
> 19.9 µM: TGI [1]
12.1 µM: TGI [5]
1.83 µM: TGI [37]
31.8 µM: TGI [22]
> 80.8 µM: TGI [35]
3.32 µM: TGI [29]
20.8 µM: TGI [51]
> 100 µM: TGI [6] | TGI [8] | TGI [9] | TGI [13] | TGI [18] | TGI [19] | TGI [21] | TGI [54] | TGI [23] | TGI [56] | TGI [30] | TGI [32] | TGI [42] | TGI [43] | TGI [45] | TGI [46] | TGI [47] | TGI [50]
> 43.9 µM: TGI [41]
1.32 µM: TGI [28]
> 23.1 µM: TGI [12]
20.6 µM: TGI [3]
0.851 µM: TGI [38]
> 90.2 µM: TGI [39]
1.15 µM: TGI [7]
1.12 µM: TGI [17]
5.3 µM: TGI [15]
2.53 µM: TGI [55]
4.24 µM: TGI [36]
10.3 µM: TGI [16]
